The values that follow come from patent US20080275009A1, “ORAL ADMINISTRATION OF N-(2-CHLORO-6-METHYLPHENYL)-2-[[6-[4-(2-HYDROXYETHYL)-1-PIPERAZINYL]-2-METHYL-4-PYRIMIDINYL]AMINO]-1,3-THIAZOLE-5-CARBOXAMIDE AND SALTS THEREOF” (Bristol-Myers Squibb Company, priority 2005, published 2008).

For one series, the system named is EPH receptor. The conditions noted are these: general statement, method or value not given; cited from earlier work.
A short description of series [1]: aqueous solubility of Compound I as a function of pH. It counts as physicochemical. To be noted: aqueous medium, pH of 2 compared with pH of 5.
The next series has as its system PDGF receptor. The conditions noted are these: general statement, method or value not given; cited from earlier work.

Turning to `Cc1nc(Nc2ncc(C(=O)Nc3c(C)cccc3Cl)s2)cc(N2CCN(CCO)CC2)n1` [Compound I, N-(2-chloro-6-methylphenyl)-2-((6-(4-(2-hydroxyethyl)-1-piperazinyl)-2-methyl-4-pyrimidinyl)amino)-1,3-thiazole-5-carboxamide], the “inhibition of EPH receptor” value in the series on EPH receptor is “potent inhibitor”. In series [1], the aqueous solubility result is given as “higher solubility at a pH of 2 than at a pH of 5”. The “inhibition of PDGF receptor” value in the series with PDGF receptor is listed as “potent inhibitor”.
